From patent US10336775B2 (Asceneuron SA, priority 2014, dated 2019)
Read-outs that look alike come from different tables or passages of the source.

Molecular target: His-Tagged hOGA (human O-GlcNAcase) (Homo sapiens (Human), UniProt O60502)
Experiment: Human O-GlcNAcase enzyme inhibition assay (Example B01)
Assay type: biochemical
Conditions: for OGA inhibitor activity (in words): measured according to Example B01
[1] = OGA IC50 (M), OGA enzyme inhibition assay, activity range classes defined in μM
[2] = OGA enzyme inhibition assay, activity range classes defined in μM, read-out: OGA IC50

His-Tagged hOGA (human O-GlcNAcase), sequence (O60502 whole entry): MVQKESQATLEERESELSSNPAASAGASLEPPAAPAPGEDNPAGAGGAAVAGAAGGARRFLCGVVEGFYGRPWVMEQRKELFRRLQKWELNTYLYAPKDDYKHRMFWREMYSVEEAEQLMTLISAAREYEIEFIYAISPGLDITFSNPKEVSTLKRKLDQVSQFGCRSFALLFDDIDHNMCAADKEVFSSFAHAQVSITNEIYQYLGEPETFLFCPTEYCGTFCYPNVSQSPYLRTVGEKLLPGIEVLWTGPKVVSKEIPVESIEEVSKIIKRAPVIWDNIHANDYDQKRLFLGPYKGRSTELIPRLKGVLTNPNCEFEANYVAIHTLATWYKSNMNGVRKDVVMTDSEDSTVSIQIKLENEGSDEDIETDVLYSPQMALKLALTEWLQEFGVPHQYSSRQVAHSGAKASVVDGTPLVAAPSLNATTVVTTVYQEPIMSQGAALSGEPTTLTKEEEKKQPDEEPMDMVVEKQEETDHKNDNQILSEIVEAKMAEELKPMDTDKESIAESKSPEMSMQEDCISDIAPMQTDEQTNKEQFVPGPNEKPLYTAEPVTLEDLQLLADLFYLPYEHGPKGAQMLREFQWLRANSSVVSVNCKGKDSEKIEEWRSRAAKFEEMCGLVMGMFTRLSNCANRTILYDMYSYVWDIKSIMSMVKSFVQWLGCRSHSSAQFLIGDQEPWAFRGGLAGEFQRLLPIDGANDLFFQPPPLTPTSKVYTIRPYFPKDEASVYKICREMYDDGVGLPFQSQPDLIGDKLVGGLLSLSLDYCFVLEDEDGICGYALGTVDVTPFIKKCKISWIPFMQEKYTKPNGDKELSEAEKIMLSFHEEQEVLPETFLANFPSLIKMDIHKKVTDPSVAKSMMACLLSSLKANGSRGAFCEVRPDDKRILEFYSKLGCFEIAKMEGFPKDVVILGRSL

Row | SMILES | IC50 [2] [M] | also measured
1 | CC(c1ccc2c(c1)OCO2)N1CCN(c2ncc(C(=O)N(C)C)s2)CC1 (single isomer, unassigned) [Example 61, (R)-2-(4-(1-(benzo[d][1,3]dioxol-5-yl)ethyl)piperazin-1-yl)-N,N-dimethylthiazole-5-carboxamide or (S)-2-(4-(1-(benzo[d][1,3]dioxol-5-yl)ethyl)piperazin-1-yl)-N,N-dimethylthiazole-5-carboxamide] |  | IC50 [1]: 5e-08 to 2e-07 M
2 | CC(c1ccc2c(c1)OCCO2)N1CCN(c2ncc(C(=O)N3CCN(C)CC3)s2)CC1 (single isomer, unassigned) [Example 75] |  | OGA inhibitor activity (in words): very potent OGA inhibitors
3 | CC(=O)Nc1cnc(N2CCN(C(C)c3ccc4c(c3)OCO4)CC2)nc1 (single isomer, unassigned) [Example 78] |  | IC50 [1]: < 5e-08 M
4 | CC(c1ccc2cccnc2c1)N1CCN(c2ncccn2)CC1 (single isomer, unassigned) [Example 95, (S)-7-(1-(4-(pyrimidin-2-yl)piperazin-1-yl)ethyl)quinolone or (R)-7-(1-(4-(pyrimidin-2-yl)piperazin-1-yl)ethyl)quinoline] |  | IC50 [1]: 5e-08 to 2e-07 M
5 | CC(=O)Nc1nnc(N2CCN(C(C)c3ccc4scnc4c3)CC2)s1 (single isomer, unassigned) [Example 133, (S)-N-(5-(4-(1-(benzo[d]thiazol-5-yl)ethyl)piperazin-1-yl)-1,3,4-thiadiazol-2-yl)acetamide or ((R)-N-(5-(4-(1-(benzo[d]thiazol-5-yl)ethyl)piperazin-1-yl)-1,3,4-thiadiazol-2-yl)acetamide] | < 5e-08 | 
6 | CC(O)c1cnc(N2CCN([C@@H](C)c3ccc4c(c3)OCO4)CC2)nc1 (single isomer, unassigned) [Example 197] | < 5e-08 | 
7 | CC(c1ccc2c(c1)OCO2)N1CCN(c2ccc([N+](=O)[O-])cn2)CC1 (stereo not shown) [Example 55, 1-(1-(benzo[d][1,3]dioxol-5-yl)ethyl)-4-(5-nitropyridin-2-yl)piperazine] |  | IC50: 5e-08 to 2e-07 M
8 | C[C@@H](c1ccc2c(c1)OCO2)N1CCN(c2nnc(N)s2)CC1 [Example 132, (S)-5-(4-(1-(benzo[d][1,3]dioxol-5-yl)ethyl)piperazin-1-yl)-1,3,4-thiadiazol-2-amine] | < 5e-08 | OGA inhibitor activity (in words): very potent OGA inhibitors
9 | CNC(=O)c1cnc(N2CCN([C@@H](C)c3ccc4c(c3)OCO4)CC2)nc1 [Example 134, (S) 2-(4-(1-(benzo[d][1,3]dioxol-5-yl)ethyl)piperazin-1-yl)-N-methylpyrimidine-5-carboxamide] | < 5e-08 | OGA inhibitor activity (in words): very potent OGA inhibitors
10 | C[C@@H](c1ccc2c(c1)OCO2)N1CCN(c2nc3ccccc3s2)CC1 [Example 136, (S)-2-(4-(1-(benzo[d][1,3]dioxol-5-yl)ethyl)piperazin-1-yl)benzo[d]thiazole] | 2e-07 to 1e-06 | 
11 | C[C@@H](c1ccc2c(c1)OCO2)N1CCN(c2ncc(C(=O)N(C)C)cn2)CC1 [Example 137, (S)-2-(4-(1-(benzo[d][1,3]dioxol-5-yl)ethyl)piperazin-1-yl)-N,N-dimethylpyrimidine-5-carboxamide] | < 5e-08 | OGA inhibitor activity (in words): very potent OGA inhibitors
12 | C[C@@H](c1ccc2c(c1)OCO2)N1CCN(c2nc3ccccc3[nH]2)CC1 [Example 138, (S)-2-(4-(1-(benzo[d][1,3]dioxol-5-yl)ethyl)piperazin-1-yl)-1H-benzo[d]imidazole] | 1e-06 to 1e-05 | 
13 | C[C@@H](c1ccc2c(c1)OCO2)N1CCN(c2nc3cnccc3s2)CC1 [Example 139, (S)-2-(4-(1-(benzo[d][1,3]dioxol-5-yl)ethyl)piperazin-1-yl)thiazolo[4,5-c]pyridine] | 5e-08 to 2e-07 | 
14 | CCNc1nnc(N2CCN([C@@H](C)c3ccc4c(c3)OCO4)CC2)s1 [Example 141, (S)-5-(4-(1-(benzo[d][1,3]dioxol-5-yl)ethyl)piperazin-1-yl)-N-ethyl-1,3,4-thiadiazol-2-amine] | 5e-08 to 2e-07 | 
15 | CCCNc1nnc(N2CCN([C@@H](C)c3ccc4c(c3)OCO4)CC2)s1 [Example 142, (S)-5-(4-(1-(benzo[d][1,3]dioxol-5-yl)ethyl)piperazin-1-yl)-N-propyl-1,3,4-thiadiazol-2-amine] | 5e-08 to 2e-07 | 
16 | C[C@@H](c1ccc2c(c1)OCO2)N1CCN(c2ccc(C(F)(F)F)cn2)CC1 [Example 166, (S)-1-(1-(benzo[d][1,3]dioxol-5-yl)ethyl)-4-(5-(trifluoromethyl)pyridin-2-yl)piperazine] | 5e-08 to 2e-07 | 
17 | CC(=O)c1cnc(N2CCN([C@@H](C)c3ccc4c(c3)OCO4)CC2)nc1 [Example 167, (S)-1-(2-(4-(1-(benzo[d][1,3]dioxol-5-yl)ethyl)piperazin-1-yl)pyrimidin-5-yl)ethan-1-one] | < 5e-08 | 
18 | CC(O)c1cnc(N2CCN([C@@H](C)c3ccc4c(c3)OCO4)CC2)nc1 (stereo partly drawn) [Example 168, 1-(2-(4-((S)-1-(benzo[d][1,3]dioxol-5-yl)ethyl)piperazin-1-yl)pyrimidin-5-yl)ethan-1-ol] | < 5e-08 | OGA inhibitor activity (in words): very potent OGA inhibitors
19 | C[C@@H](c1ccc2c(c1)OCO2)N1CCN(c2nnc(NC(=O)CCO)s2)CC1 [Example 171] | < 5e-08 | 

Row | SMILES | IC50 [2] [M] | also measured
20 | C[C@@H](c1ccc2c(c1)OCO2)N1CCN(c2ncc(F)cn2)CC1 [Example 173, (S)-2-(4-(1-(benzo[d][1,3]dioxol-5-yl)ethyl)piperazin-1-yl)-5-fluoropyrimidine] | < 5e-08 | OGA inhibitor activity (in words): very potent OGA inhibitors
21 | C[C@@H](c1ccc2c(c1)OCO2)N1CCN(c2ncc(Br)cn2)CC1 [Example 175, (S)-2-(4-(1-(benzo[d][1,3]dioxol-5-yl)ethyl)piperazin-1-yl)-5-bromopyrimidine] | < 5e-08 | 
22 | C[C@@H](c1ccc2c(c1)OCO2)N1CCN(c2ncc(C(C)(C)O)cn2)CC1 [Example 176, (S)-2-(2-(4-(1-(benzo[d][1,3]dioxol-5-yl)ethyl)piperazin-1-yl)pyrimidin-5-yl)propan-2-ol] | < 5e-08 | OGA inhibitor activity (in words): very potent OGA inhibitors
23 | C[C@@H](c1ccc2c(c1)OCO2)N1CCN(c2ncc(NC(=O)CCO)cn2)CC1 [Example 177, (S)-N-(2-(4-(1-(benzo[d][1,3]dioxol-5-yl)ethyl)piperazin-1-yl)pyrimidin-5-yl)-3-hydroxypropanamide] | < 5e-08 | 
24 | C[C@@H](c1ccc2c(c1)OCO2)N1CCN(c2ncc(C3(O)CCCCC3)cn2)CC1 [Example 180, (S)-1-(2-(4-(1-(benzo[d][1,3]dioxol-5-yl)ethyl)piperazin-1-yl)pyrimidin-5-yl)cyclohexan-1-ol] | < 5e-08 | OGA inhibitor activity (in words): very potent OGA inhibitors
25 | C[C@@H](c1ccc2c(c1)OCO2)N1CCN(c2ncc(C3(O)CCCC3)cn2)CC1 [Example 181, (S)-1-(2-(4-(1-(benzo[d][1,3]dioxol-5-yl)ethyl)piperazin-1-yl)pyrimidin-5-yl)cyclopentan-1-ol] | < 5e-08 | OGA inhibitor activity (in words): very potent OGA inhibitors
26 | C[C@@H](c1ccc2c(c1)OCO2)N1CCN(c2nc3c(s2)CNCC3)CC1 [Example 182, (S)-2-(4-(1-(benzo[d][1,3]dioxol-5-yl)ethyl)piperazin-1-yl)-4,5,6,7-tetrahydrothiazolo[5,4-c]pyridine] | < 5e-08 | OGA inhibitor activity (in words): very potent OGA inhibitors
27 | CCOC(=O)c1ccc(N2CCN([C@@H](C)c3ccc4c(c3)OCO4)CC2)nc1 [Example 183, Ethyl (S)-6-(4-(1-(benzo[d][1,3]dioxol-5-yl)ethyl)piperazin-1-yl)nicotinate] | 5e-08 to 2e-07 | 
28 | CC(=O)N1CCc2nc(N3CCN([C@@H](C)c4ccc5c(c4)OCO5)CC3)sc2C1 [Example 184, (S)-1-(2-(4-(1-(benzo[d][1,3]dioxol-5-yl)ethyl)piperazin-1-yl)-6,7-dihydrothiazolo[5,4-c]pyridin-5(4H)-yl)ethan-1-one] | < 5e-08 | 
29 | C[C@@H](c1ccc2c(c1)OCO2)N1CCN(c2ccc(CO)cn2)CC1 [Example 185, (S)-(6-(4-(1-(benzo[d][1,3]dioxol-5-yl)ethyl)piperazin-1-yl)pyridin-3-yl)methanol] | < 5e-08 | 
30 | CNC(=O)c1ccc(N2CCN([C@@H](C)c3ccc4c(c3)OCO4)CC2)nc1 [Example 186, (S)-6-(4-(1-(benzo[d][1,3]dioxol-5-yl)ethyl)piperazin-1-yl)-N-methylnicotinamide] | < 5e-08 | 
31 | C[C@@H](c1ccc2c(c1)OCO2)N1CCN(c2ccc(C(=O)N(C)C)cn2)CC1 [Example 187, (S)-6-(4-(1-(benzo[d][1,3]dioxol-5-yl)ethyl)piperazin-1-yl)-N,N-dimethylnicotinamide] | < 5e-08 | 
32 | C[C@@H](c1ccc2c(c1)OCO2)N1CCN(c2ncc(C3(O)CCOCC3)cn2)CC1 [Example 188, (S)-4-(2-(4-(1-(benzo[d][1,3]dioxol-5-yl)ethyl)piperazin-1-yl)pyrimidin-5-yl)tetrahydro-2H-pyran-4-ol] | < 5e-08 | 
33 | C[C@@H](c1ccc2c(c1)OCO2)N1CCN(c2ncc(C3(O)CCOC3)cn2)CC1 (stereo partly drawn) [Example 189, 3-(2-(4-((S)-1-(benzo[d][1,3]dioxol-5-yl)ethyl)piperazin-1-yl)pyrimidin-5-yl)tetrahydrofuran-3-ol] | < 5e-08 | 
34 | C[C@@H](c1ccc2c(c1)OCO2)N1CCN(c2ccc(C(C)(C)O)cn2)CC1 [Example 190, (S)-2-(6-(4-(1-(benzo[d][1,3]dioxol-5-yl)ethyl)piperazin-1-yl)pyridin-3-yl)propan-2-ol] | < 5e-08 | 
35 | C[C@@H](c1ccc2c(c1)OCO2)N1CCN(c2ccc(Br)cn2)CC1 [Example 191, (S)-1-(1-(benzo[d][1,3]dioxol-5-yl)ethyl)-4-(5-bromopyridin-2-yl)piperazine] | 5e-08 to 2e-07 | 
36 | CSc1ccc(N2CCN([C@@H](C)c3ccc4c(c3)OCO4)CC2)nc1 [Example 192, (S)-1-(1-(benzo[d][1,3]dioxol-5-yl)ethyl)-4-(5-(methylthio)pyridin-2-yl)piperazine] | < 5e-08 | 
37 | C[C@@H](c1ccc2c(c1)OCO2)N1CCN(c2nc3c(s2)CN(S(C)(=O)=O)CC3)CC1 [Example 193, (S)-2-(4-(1-(benzo[d][1,3]dioxol-5-yl)ethyl)piperazin-1-yl)-5-(methylsulfonyl)-4,5,6,7-tetrahydrothiazolo[5,4-c]pyridine] | < 5e-08 | 
